Measurements as given in the NIST ThermoML archive (doi:10.1021/je900311v).

Legend:
[1] = 298.15 K; 101.33 kPa; Liquid
[2] = excess molar enthalpy (molar enthalpy of mixing); xn = mol fraction of the nth substance listed; conditions: 298.15 K, 101 kPa, Liquid, Calvet calorimetry

CCCCCC(=O)CC [3-octanone]
Conditions	mass density [kg/m3]
[1]	817.77

CCCCCC(=O)CC [3-octanone] + CCCCCCCCCCCC
[2]
Conditions	excess molar enthalpy [kcal/mol]
x1 = 0.0352	0.0408
x1 = 0.0679	0.0749
x1 = 0.0985	0.102
x1 = 0.1272	0.126
x1 = 0.1541	0.145
x1 = 0.1794	0.162
x1 = 0.2078	0.178
x1 = 0.2344	0.192
x1 = 0.2592	0.203
x1 = 0.2824	0.212
x1 = 0.3042	0.22
x1 = 0.3248	0.226
x1 = 0.3477	0.232
x1 = 0.3691	0.236
x1 = 0.3892	0.239
x1 = 0.408	0.242
x1 = 0.4257	0.243
x1 = 0.445	0.244
x1 = 0.4631	0.245
x1 = 0.48	0.245
x1 = 0.4959	0.245
x1 = 0.5109	0.244
x1 = 0.525	0.243
x1 = 0.5383	0.242
x1 = 0.5524	0.24
x1 = 0.5657	0.237
x1 = 0.5782	0.235
x1 = 0.5798	0.233
x1 = 0.59	0.233
x1 = 0.5925	0.231
x1 = 0.6057	0.229
x1 = 0.6194	0.226
x1 = 0.632	0.222
x1 = 0.6451	0.219
x1 = 0.6588	0.215
x1 = 0.673	0.21
x1 = 0.6855	0.207
x1 = 0.6985	0.201
x1 = 0.712	0.196
x1 = 0.726	0.19
x1 = 0.7405	0.183
x1 = 0.7557	0.176
x1 = 0.7693	0.17
x1 = 0.7833	0.162
x1 = 0.798	0.154
x1 = 0.8133	0.146
x1 = 0.8289	0.136
x1 = 0.8453	0.126
x1 = 0.8592	0.116
x1 = 0.8735	0.106
x1 = 0.8883	0.0958
x1 = 0.9036	0.0842
x1 = 0.9194	0.0717
x1 = 0.9358	0.0585
x1 = 0.9511	0.0454
x1 = 0.9668	0.0313
x1 = 0.9831	0.0161

CCCCCC(=O)CC [3-octanone] + CCCCCCCCCCCCCC
[2]
Conditions	excess molar enthalpy [kcal/mol]
x1 = 0.0384	0.0466
x1 = 0.074	0.0845
x1 = 0.107	0.116
x1 = 0.1377	0.141
x1 = 0.1664	0.163
x1 = 0.1933	0.181
x1 = 0.2233	0.198
x1 = 0.2512	0.213
x1 = 0.2771	0.224
x1 = 0.3013	0.233
x1 = 0.324	0.241
x1 = 0.3452	0.247
x1 = 0.3687	0.252
x1 = 0.3907	0.257
x1 = 0.4111	0.26
x1 = 0.4303	0.262
x1 = 0.4482	0.263
x1 = 0.465	0.264
x1 = 0.4833	0.264
x1 = 0.5005	0.264
x1 = 0.5166	0.263
x1 = 0.5316	0.261
x1 = 0.5458	0.259
x1 = 0.5618	0.257
x1 = 0.5762	0.254
x1 = 0.5904	0.251
x1 = 0.6033	0.248
x1 = 0.6131	0.245
x1 = 0.6255	0.242
x1 = 0.6385	0.239
x1 = 0.6519	0.235
x1 = 0.666	0.23
x1 = 0.6781	0.226
x1 = 0.6906	0.221
x1 = 0.7037	0.216
x1 = 0.7172	0.21
x1 = 0.7313	0.204
x1 = 0.7459	0.197
x1 = 0.7586	0.19
x1 = 0.7716	0.183
x1 = 0.7852	0.176
x1 = 0.7992	0.167
x1 = 0.8138	0.158
x1 = 0.8288	0.149
x1 = 0.8419	0.14
x1 = 0.8555	0.13
x1 = 0.8694	0.12
x1 = 0.8838	0.109
x1 = 0.8988	0.0967
x1 = 0.9142	0.0835
x1 = 0.9552	0.0458
x1 = 0.9696	0.0313
x1 = 0.9846	0.0167

CCCCCC(=O)CC [3-octanone] + CCCCCCCCCCCCCCCC
[2]
Conditions	excess molar enthalpy [kcal/mol]
x1 = 0.0448	0.0548
x1 = 0.0857	0.0987
x1 = 0.1233	0.134
x1 = 0.1578	0.163
x1 = 0.1899	0.187
x1 = 0.2195	0.207
x1 = 0.2522	0.227
x1 = 0.2824	0.243
x1 = 0.3102	0.255
x1 = 0.336	0.265
x1 = 0.3599	0.273
x1 = 0.3822	0.279
x1 = 0.4079	0.284
x1 = 0.4316	0.288
x1 = 0.4534	0.29
x1 = 0.4737	0.292
x1 = 0.4956	0.292
x1 = 0.5158	0.291
x1 = 0.5345	0.29
x1 = 0.5517	0.288
x1 = 0.5677	0.286
x1 = 0.5827	0.283
x1 = 0.5995	0.279
x1 = 0.615	0.276
x1 = 0.6293	0.272
x1 = 0.6426	0.268
x1 = 0.655	0.264
x1 = 0.6775	0.253
x1 = 0.69	0.248
x1 = 0.7029	0.243
x1 = 0.7163	0.237
x1 = 0.7302	0.231
x1 = 0.7423	0.225
x1 = 0.7547	0.218
x1 = 0.7676	0.211
x1 = 0.7809	0.204
x1 = 0.7947	0.195
x1 = 0.809	0.186
x1 = 0.8216	0.177
x1 = 0.8347	0.168
x1 = 0.8482	0.157
x1 = 0.8621	0.146
x1 = 0.8741	0.136
x1 = 0.8865	0.125
x1 = 0.8993	0.113
x1 = 0.9124	0.1
x1 = 0.9259	0.0866
x1 = 0.9375	0.0746
x1 = 0.9494	0.0618
x1 = 0.9615	0.0478
x1 = 0.974	0.033
x1 = 0.9868	0.0169

CCCCCCCCCCCC [dodecane]
Conditions	mass density [kg/m3]
[1]	745.28

CCCCCCCCCCCCCCCC [hexadecane]
Conditions	mass density [kg/m3]
[1]	770.31

CCCCCCCCCCCCCC [tetradecane]
Conditions	mass density [kg/m3]
[1]	760.2
